Results on 19 compounds are retold here after patent US9725477B2, “Platinum compounds of malonic acid derivative having leaving group containing amino or alkylamino” (BEIJING FSWELCOME TECHNOLOGY DEVELOPMENT CO., LTD, priority 2012, dated 2017).

Counter-ions that a name gives are not always drawn. Like-named read-outs stand apart in the source and are kept apart here.

Series [1] in a line: MTT cytotoxicity, alveolar epithelial cells BEAS-2B. The series is classed as cell-based. As to conditions: human, BEAS-2B alveolar epithelial cells; Alveolar epithelial cells BEAS-2B, MTT, n = 6.
The next series can be described thus: in vivo. As to conditions: both, Kunming, mouse, in vivo, iv. How it is done: (§1) Kunming mice with 4˜6 weeks old and 18 g˜22 g by weight were taken, 50% males and 50% females. […] The condition of mortality and toxicity were observed after administration. Totally observing for 14 days, LD50 value was calculated using Bliss method according to the mortality.
The conditions of series [2]: existing platinum drugs, background section; cited from earlier work.
In series [3] the test system is Breast cancer MCF-7 cisplatin resistance strain. Description: MTT cytotoxicity, breast cancer MCF-7 cisplatin resistance strain. As to conditions: n = 6. The series is classed as cell-based.
The test system of series [4] is Alveolar epithelial cells BEAS-2B. Description: MTT cytotoxicity, alveolar epithelial cells BEAS-2B. The series is classed as cell-based.
The next series relates to Breast cancer MCF-7. Description: MTT cytotoxicity, breast cancer MCF-7. The series is classed as cell-based. As to conditions: Breast cancer MCF-7, MTT, n = 6.
The subject of another series is Lung cancer H292. Description: MTT cytotoxicity, lung cancer H292. The series is classed as cell-based.
For a further series, the system named is colon cancer SW480. Description: MTT cytotoxicity, colon cancer SW480. The series is classed as cell-based.
A further series relates to Lung cancer Lewis. Description: MTT cytotoxicity, lung cancer Lewis. The series is classed as cell-based.
The next series relates to gastric cancer MGC803. Description: MTT cytotoxicity, gastric cancer MGC803. The series is classed as cell-based. As to conditions: n = 6.
The next series relates to Esophagus cancer ECA109. Description: MTT cytotoxicity, esophagus cancer ECA109. The series is classed as cell-based. As to conditions: n = 6.
The next series relates to Testis cell ST. Description: MTT cytotoxicity, testis cell ST. The series is classed as cell-based. As to conditions: n = 6.
Another series has as its system normal mice. Description: in vivo. As to conditions: Table 3; mice, single intravenous administration, 14 days observation. How it is done: as §1
For the next series, the system named is Lung cancer A549. Description: MTT cytotoxicity, lung cancer A549. As to conditions: read-out: cytotoxicity IC50; Lung cancer A549, MTT, n = 6, Table 4. How it is done:
Cell morphologies were observed after being cultivated for 24 hours.

Series [5] in a line: MTT cytotoxicity, testis cell ST. The series is classed as cell-based. As to conditions: pig, ST testis cells, n = 6.
Setting [6] is: Alveolar epithelial cells BEAS-2B, MTT, n = 6, read-out: cytotoxicity IC50.
Setting [7] is: Lung cancer H292, MTT, n = 6, read-out: cytotoxicity IC50.
[8] abbreviates: colon cancer SW480, MTT, n = 6, read-out: cytotoxicity IC50.
[9] abbreviates: Lung cancer Lewis, MTT, n = 6, read-out: cytotoxicity IC50.
[10] abbreviates: compound of the example (salt form) in water.

Take `[NH2][Pt]1([NH2])[O]C(=O)C(CCCCN2CCCC2)C(=O)[O]1` [Compound 5, 2-(4-(1-tetrahydropyrrolidinyl)-butyl)-malonate•cis-diamine platinum (II) phosphate]: inhibition in series [1] was half-maximal at 2 µM (IC50). In the series “Solubility in water” (water), the solubility (usually the concentration that dissolves in the medium under given conditions) is above 300 mg/mL. Besides, the LD50 (commonly the dose expected to kill half of the subjects tested) in “in vivo” stood at 845 µmol/kg.
For the compound `N.N.O=C([O-])C1(C(=O)[O-])CCC1.[Pt+2]` [Carboplatin, cis-1,1-cyclobutanedicarboxylatodiamminoplatinum, reference compound], the solubility in series [2] is 17.8 mg/mL. In addition, the concentration for half-maximal inhibition (IC50) (commonly the concentration that gives 50% inhibition) in [3] amounted to 255 µM; in series [4] (setting [6]), 37 µM; in the series on Breast cancer MCF-7, 103 µM; in the series on Lung cancer H292 (setting [7]) it was 55 µM; in the series with colon cancer SW480 (setting [8]), 87 µM; with Lung cancer Lewis (setting [9]) it was 38 µM. The IC50 in the series with gastric cancer MGC803 amounted to 625 µM; in the series on Esophagus cancer ECA109, 52 µM; in the series with Testis cell ST, 195 µM; in the series on Lung cancer A549 it was 232 µM. Besides, the “LD50 vALUE” in the series with normal mice turned out to be 0.336 mmol/kg.
As for `CCN(CC)CCCCC1C(=O)[O][Pt]([NH2])([N]2CCCCC2)[O]C1=O` (stereo not drawn) [Compound 28, 2-(4-diethylaminobutyl)-malonate•cis-ammonia•piperidine platinum (II) acetate], in the series “Solubility in water” (water), the solubility was above 300 mg/mL. The compound further gave a 50% inhibitory concentration (IC50) in [5] of 61 µM. The compound also had an LD50 at 14 days in the series “in vivo” of 725 µmol/kg.
Take `Cc1ccc(S(=O)(=O)O)cc1.O=C1[O][Pt]2([NH]C3CCCCC3[NH]2)[O]C(=O)C1CCCCN1CCCCC1` (racemic) [Compound 9, 2-(4-(1-piperidyl)-butyl)-malonate•cis-(1,2-trans-cyclohexanediamine) platinum (II) tosilate]: the IC50 turned out to be 2 µM in series [4], 8 µM with Lung cancer H292, 14 µM in the series with colon cancer SW480 and 50 µM in the series with Lung cancer Lewis. For the same compound, the “LD50 vALUE” in the series with normal mice is 0.725 mmol/kg.
As to `[NH2][Pt]1([NH2])[O]C(=O)C(CCCCN2CCCCC2)C(=O)[O]1` [Compound 4, 2-(4-(1-piperidyl)-butyl)-malonate•cis-diamine platinum (II) phosphate], in “Solubility in water” (water), the solubility was above 300 mg/mL. This compound also returned an LD50 in the series “in vivo” of 823 µmol/kg.
With “2-(4-di-n-propylaminobutyl)-malonate•cis-diamine platinum (II) phosphate [Compound 7]”, the IC50 in [4] was 4 µM; in the series with Lung cancer H292 it was 4 µM; in the series on colon cancer SW480, 10 µM; with Lung cancer Lewis, 21 µM. The “LD50 vALUE” with normal mice is on record as 0.778 mmol/kg.
For `CCN(CC)CC(C)CCC1C(=O)[O][Pt]([NH2])([NH2])[O]C1=O` (stereo not drawn) [Compound 8, 2-(3-methyl-4-diethylaminobutyl)-malonate•cis-diamine platinum (II) acetate], half-maximal inhibition in [1] (IC50) was put at 5 µM. This compound gave a solubility in “Solubility in water” (water) above 300 mg/mL. Also, the LD50 in “in vivo” worked out at 801 µmol/kg.
For `CCN(CC)CCCCC1C(=O)[O][Pt]2([NH]C3CCCCC3[NH]2)[O]C1=O.Cc1ccc(S(=O)(=O)O)cc1` (racemic) [Compound 3, 2-(4-diethylaminobutyl)-malonate•cis-(1,2-trans-cyclohexanediamine) platinum (II) tosilate], the IC50 in series [3] is 21 µM; with Breast cancer MCF-7, 7 µM; with Lung cancer H292 (setting [7]) it was 6 µM; in the series with Lung cancer A549, 8 µM. Besides, the “LD50 vALUE” in the series with normal mice was 0.815 mmol/kg.
`CCN(CC)CCCCC1C(=O)[O][Pt]([NH2])([NH2])[O]C1=O` [Compound 1, 2-(4-diethylaminobutyl)-malonate•cis-diamine platinum (II) acetate] showed a solubility in the series “Solubility in water” (water) above 300 mg/mL. Also, the LD50 in “in vivo” amounted to 746 µmol/kg.
Consider `CCN(CC)CCCCC1C(=O)[O][Pt]2([NH]C3CCCC3[NH]2)[O]C1=O.O=P(O)(O)O` (racemic) [Compound 14, 2-(4-diethylaminobutyl)-malonate•cis-(1,2-trans-cyclopentanediamine) platinum (II) phosphate], for which the IC50 is 5 µM in series [4] (setting [6]), 12 µM with Lung cancer H292 (setting [7]), 17 µM in the series with colon cancer SW480 (setting [8]) and 36 µM with Lung cancer Lewis (setting [9]). In addition, the solubility result in the series “Solubility in water” (setting [10]) is recorded as “more than 300 mg/ml”. In addition, in the series with normal mice, the “LD50 vALUE” was determined as 0.866 mmol/kg.
Take `CCN(CC)CCCCC1C(=O)[O][Pt]2([NH]CC3(CCOCC3)C[NH]2)[O]C1=O.O=P(O)(O)O` [Compound 24, 2-(4-diethylaminobutyl)-malonate•cis-1,3-(2,2-(4-oxacyclohexyl))-propanediamine•platinum (II) phosphate]: the IC50 in the series with Lung cancer H292 (setting [7]) worked out at 3 µM; with gastric cancer MGC803, 3 µM; in the series on Esophagus cancer ECA109, 52 µM; with Testis cell ST, 6 µM. Further, the solubility result in the series “Solubility in water” (setting [10]) is listed as “more than 300 mg/ml”.
For `CCN(CC)CCCCC1C(=O)[O][Pt]2([NH]CC3CCC3C[NH]2)[O]C1=O.O=P(O)(O)O` (racemic) [Compound 22, 2-(4-diethylaminobutyl)-malonate•cis-1,4-(trans-2,3-cyclobutyl)-butanediamine platinum (II) phosphate], the concentration for half-maximal inhibition (IC50) in the series with Lung cancer H292 (setting [7]) was found to be 5 µM; in the series with gastric cancer MGC803, 7 µM; in the series on Esophagus cancer ECA109, 102 µM; in the series with Testis cell ST, 14 µM. Moreover, the solubility result in the series “Solubility in water” (setting [10]) is “more than 300 mg/ml”.
For `CC1CCCN1CCCCC1C(=O)[O][Pt]([NH2])([NH2])[O]C1=O` (stereo not drawn) [Compound 10, 2-(4-(2-methyl-1-tetrahydropyrrolidinyl)-butyl)-malonate•cis-diamine platinum (II) phosphate], in series [1], the half-maximal inhibitory concentration (IC50) was found to be 3 µM. Moreover, the solubility in the series “Solubility in water” (water) was above 300 mg/mL. In the series “in vivo”, this compound returned an LD50 of 791 µmol/kg.
Consider “2-(2-diethylaminobutyl)-malonate•cis-1,2-(1,2-dihydroxymethyl)-ethylenediamine platinum (II) phosphate [Compound 20]”, for which the IC50 was found to be 5 µM with Lung cancer H292 (setting [7]), 4 µM in the series on gastric cancer MGC803, 17 µM in the series with Esophagus cancer ECA109 and 11 µM with Testis cell ST.
On to “2-(4-ethyl aminobutyl)-malonate•cis-(1, 2-trans-cyclohexanediamine) platinum (II) phosphate [Compound 12]”, for which the IC50 was found to be 8 µM in series [4], 6 µM with Lung cancer H292, 18 µM in the series on colon cancer SW480 and 18 µM in the series with Lung cancer Lewis. In the series on normal mice, the “LD50 vALUE” stood at 0.729 mmol/kg.
`CN(C)C1CC(C2C(=O)[O][Pt]([NH2])([NH2])[O]C2=O)C1` (stereo not drawn) [Compound 6, 2-(3-dimethylaminocyclobutyl)-malonate•cis-diamine platinum (II) mesylate] showed an IC50 in [1] of 3 µM. The solubility in the series “Solubility in water” (water) is above 300 mg/mL. Further, in “in vivo”, the median lethal dose (LD50) worked out at 756 µmol/kg.
Take `NCCCCC1C(=O)[O][Pt]2([NH]C3CCCCC3[NH]2)[O]C1=O.O=P(O)(O)O` (racemic) [Compound 11, 2-(4-aminobutyl)-malonate•cis-(1,2-trans-cyclohexanediamine) platinum (II) phosphate]: the half-maximal inhibitory concentration (IC50) in series [4] was 2 µM; in the series with Lung cancer H292, 5 µM; in the series with colon cancer SW480 it was 21 µM; in the series on Lung cancer Lewis, 49 µM. Besides, in the series on normal mice, the “LD50 vALUE” came to 0.803 mmol/kg.
As for `CCN(CC)CCCCC1C(=O)[O][Pt][O]C1=O.NC1CCC(N)CC1.O=P(O)(O)O` [Compound 23, 2-(4-diethylaminobutyl)-malonate•cis-1,4-cyclohexanediamine platinum (II) phosphate], the 50% inhibitory concentration (IC50) was 14 µM in the series on Lung cancer H292 (setting [7]), 5 µM in the series with gastric cancer MGC803, 66 µM in the series on Esophagus cancer ECA109 and 8 µM in the series with Testis cell ST. The solubility result in “Solubility in water” (setting [10]) is recorded as “more than 300 mg/ml”.
As for “2-(4-diethylaminobutyl)-malonate•cis-(2-aminomethyl-cyclopentylamine) platinum (II) acetate [Compound 27]”, the IC50 was determined as 4 µM with Lung cancer H292 (setting [7]), 5 µM in the series on gastric cancer MGC803, 54 µM in the series with Esophagus cancer ECA109 and 13 µM in the series on Testis cell ST.
